# Source: paper PMC4850424 (Molecular Cell, 2016)
# Legend:
# testis-derived Brdt = assay: JQ1 inhibition of Brdt binding to H4 peptides; parameters: species or system mouse; details: JQ1 added to extract prior to peptide pull-down; Figure 6C lower left
# [1] = system: histone octamers / chromatin (H4K5 and H4K8); details: [14C] butyryl-CoA, in vitro; ref Chen et al., 2007; cited from earlier work
Molecule,inhibition of Brdt binding to H4K5acK8bu peptide (testis-derived Brdt),inhibition of Brdt binding to acetylated H4 peptide (testis-derived Brdt),lysine butyrylation of core histones [1]
Cc1sc2c(c1C)C(c1ccc(Cl)cc1)=N[C@@H](CC(=O)OC(C)(C)C)c1nnc(C)n1-2 [JQ1],abolished the binding,abolished the binding,
CREB binding protein (CBP): histone acyltransferase,,,can catalyze lysine butyrylation
"p300: Flag tagged human p300 (324-2094), recombinant from baculovirus-infected insect cells",,,can catalyze lysine butyrylation
